Among the data in ChEMBL document CHEMBL1143783, “In vitro biotransformations of the prostaglandin D2 (DP) antagonist MK-0524 and synthesis of metabolites” (Bioorg Med Chem Lett, 2007) are Stability values, retold here.

Molecules are shown by their SMILES.

The subject of the series is Plasma. Nature of the series: Stability in rat plasma. It is filed as ADME, cell-free.

Molecule `CS(=O)(=O)c1cc(F)cc2c3c(n(Cc4ccc(Cl)cc4)c12)[C@@H](CC(=O)O)C[C@H]3O` came in with a Stability of under 5%.
The value for `CS(=O)(=O)c1cc(F)cc2c3c(n(Cc4ccc(Cl)cc4)c12)[C@@H](CC(=O)O)C[C@@H]3O` was under 5%.
